Like-named read-outs stand apart in the source and are kept apart here.
Target: T1, human TLR8 (Homo sapiens, UniProt Q9NR97)
T1 construct: expressed in transfected cells; host or cells: HEK-Blue Null1 cells, lentiviral infection
T1 sequence (Q9NR97 27-1041): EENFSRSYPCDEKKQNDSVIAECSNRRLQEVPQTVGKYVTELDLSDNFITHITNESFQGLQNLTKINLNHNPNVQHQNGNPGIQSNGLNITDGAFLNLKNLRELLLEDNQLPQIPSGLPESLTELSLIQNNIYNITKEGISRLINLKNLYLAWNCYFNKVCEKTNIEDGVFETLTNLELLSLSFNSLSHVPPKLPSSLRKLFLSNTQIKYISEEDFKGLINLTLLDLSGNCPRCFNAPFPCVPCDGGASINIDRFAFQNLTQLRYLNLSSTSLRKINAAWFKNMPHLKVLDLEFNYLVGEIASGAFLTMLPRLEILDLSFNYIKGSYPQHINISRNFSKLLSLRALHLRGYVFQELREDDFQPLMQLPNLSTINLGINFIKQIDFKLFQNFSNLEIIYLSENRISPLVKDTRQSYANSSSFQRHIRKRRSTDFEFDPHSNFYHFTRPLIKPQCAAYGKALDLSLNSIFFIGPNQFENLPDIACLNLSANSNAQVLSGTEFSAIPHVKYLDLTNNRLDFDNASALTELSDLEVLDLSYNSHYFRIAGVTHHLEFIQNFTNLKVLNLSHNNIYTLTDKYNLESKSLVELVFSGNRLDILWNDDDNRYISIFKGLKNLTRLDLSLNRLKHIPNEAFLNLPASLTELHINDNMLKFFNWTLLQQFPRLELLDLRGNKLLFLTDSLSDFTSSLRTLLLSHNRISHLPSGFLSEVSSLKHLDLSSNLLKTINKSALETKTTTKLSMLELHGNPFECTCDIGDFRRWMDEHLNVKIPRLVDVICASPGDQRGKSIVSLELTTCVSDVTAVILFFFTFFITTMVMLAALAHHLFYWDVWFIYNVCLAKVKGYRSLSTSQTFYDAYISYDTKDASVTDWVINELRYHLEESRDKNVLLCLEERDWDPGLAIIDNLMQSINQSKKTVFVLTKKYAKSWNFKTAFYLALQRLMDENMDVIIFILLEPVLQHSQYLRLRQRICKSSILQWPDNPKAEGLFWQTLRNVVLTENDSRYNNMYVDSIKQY
Experiment: SEAP reporter assay in HEK-Blue TLR8 cells, R848-induced TLR8 signaling
Type: cell-based
Settings: for inhibitory activity against TLR8 signaling: up to 20 μM
Method: SEAP reporter assay: HEK-Blue TLR8 cells were seeded in tissue culture treated 96-well plates with a density of 7.5×10^4 cells/well in DMEM media supplemented with 10% FBS (phosphatases deactivated with heat). […] Plates are then incubated in humidified incubators containing 5% CO2 at 37° C. for 24 h, after which, 30 μL of culture media was transfer to a new plate and 100 μL of Quanti-Blue (Invivogen) was added, the plate was then incubated at 37° C. till color change (30 min-1 h). Readout of absorbance at 620 nm was quantified using Beckman-Coulter DTX 880 Multimode Detector. […] SEAP assays for each sample were conducted with three biological replicates, each in triplicate.
To establish a robust high throughput assay for TLR8 inhibitors, the inventors first engineered a cell line stably overexpressing the human TLR8 whose activation can be reported by the Secreted Embryonic Alkaline Phosphatase (SEAP) assay. TLR8-overexpresing HEK-Blue cells were prepared by lentiviral infection of HEK-Blue Null1 cells that have null or low basal expression of endogenous TLR genes. […] The TLR8-mediated NF-κB activation can be assessed by measuring the SEAP activity.

[1] = 1(2H)-phthalazinone and quinoline derivatives in HEK-Blue hTLR8 cells
[2] = HEK-Blue TLR8 cells, R848 as agonist
[3] = pyrazolo[1,5-a]pyrimidine derivatives in HEK-Blue hTLR8 cells, ± SD, at least three biological replicates
[4] = quinoline derivatives in HEK-Blue hTLR8 cells, ± SD, at least three biological replicates
[5] = same column as E3, cell prints (nM), HEK-Blue hTLR8 cells

IC50 [1] | Structure (SMILES) | further results
> 20000 nM | Cc1cc(-c2n[nH]c(=O)c3ccccc23)cc(C)c1N [Compound 15] | –
> 20000 nM | COc1ccc(-c2n[nH]c(=O)c3ccccc23)cc1 [Compound 9, 4-(4-Methoxyphenyl)-1(2H)-phthalazinone] | –
> 20000 nM | Cc1cc(-c2n[nH]c(=O)c3ccccc23)cc(C)c1C(=O)O [Compound 13, 4-(4-Carboxylic-3,5-dimethylphenyl)-1(2H)-phthalazinone] | –
– | Cc1cc(-c2ccnc3cc(Cl)ccc23)ccc1O [CU-CPT9c, 4-(7-Chloro-4-quinolinyl)-2-methyl-phenol] | IC50: 1 ± 0.2 nM
> 20000 nM | Cc1cc(-c2n[nH]c(=O)c3ccccc23)c(C)c(C)c1O [Compound 24, 4-(4-Hydroxy-2,3,5-trimethylphenyl)-1(2H)-phthalazinone] | –
> 20000 nM | COc1ccc(-c2n[nH]c(=O)c3ccccc23)cc1[N+](=O)[O-] [Compound 29, 4-(4-Methoxyl-3-nitrophenyl)-1(2H)-phthalazinone] | –
– | NC(=O)c1cnn2c(-c3cccc(C(F)(F)F)c3)ccnc12 [Compound 6a] | fold higher potency than 6c (HEK-Blue TLR8 cells): 2 fold; fold higher potency than 6d (HEK-Blue TLR8 cells): 10 fold; IC50 [2]: 130 nM
8510 ± 3150 nM | COC(=O)c1ccc(-c2n[nH]c(=O)c3ccccc23)cc1C [Compound 16, 4-(4-Carbomethoxyl-3-methylphenyl)-1(2H)-phthalazinone] | –
– | NC(=O)c1cnn2c(-c3cccc([N+](=O)[O-])c3)ccnc12 [Compound 6f] | IC50 [3]: 220 ± 70 nM
– | Cc1cc(-c2n[nH]c(=O)c3ccccc23)ccc1O [Compound 14b] | IC50 [4]: 1300 ± 320 nM
– | Cc1cccc(-c2ccnc3c(C(=O)O)cnn23)c1 [Compound 4b] | inhibitory activity against TLR8 signaling: did not show any inhibitory activity
3910 ± 200 nM | Cc1cc(-c2n[nH]c(=O)c3ccccc23)cc(C)c1O [Compound 20, 4-(4-Hydroxy-3,5-dimethylphenyl)-1(2H)-phthalazinone] | –
– | Cc1cc(-c2ccnc3ccccc23)ccc1O [Compound 37, 4-(3-Methyl-4-Hydroxyphenyl)quinoline] | IC50 [5]: 38.6 ± 5.75 nM
1220 ± 100 nM | Cc1cc(-c2cccc3ccccc23)cc(C)c1O [Compound 42, 1-(4-Hydroxy-3,5-dimethylphenyl)naphthalene] | –
> 20000 nM | CCn1nc(-c2ccc(O)c(C)c2)c2ccccc2c1=O [Compound 31, 4-(4-Hydroxy-3-methylphenyl)-2-ethyl-1(2H)-phthalazinone] | –
– | COc1cccc(-c2ccnc3c(C(N)=O)cnn23)c1 [Compound 6k] | IC50 [3]: 1200 nM
340 ± 20 nM | Cc1cc(-c2cnnc3ccccc23)ccc1O [Compound 45, 4-(4-Hydroxy-3-methylphenyl)-cinnolin] | –
> 20000 nM | COc1ccc(-c2n[nH]c(=O)c3ccccc23)cc1C(F)(F)F [Compound 27, 4-(4-Methoxyl-3-trifluoromethylphenyl)-1(2H)-phthalazinone] | –
– | CNC(=O)c1cnn2c(-c3cccc(C(F)(F)F)c3)ccnc12 [Compound 6n] | IC50 [3]: 1700 nM; fold reduction in potency (secondary amide analog versus primary amide): 25 fold
2730 ± 850 nM | CCc1cc(-c2n[nH]c(=O)c3ccccc23)ccc1O [Compound 22, 4-(4-Hydroxy-3-ethylphenyl)-1(2H)-phthalazinone] | –
6750 ± 1300 nM | Cc1cc(-c2nncc3ccccc23)ccc1O [Compound 41, 1-(3-Methyl-4-Hydroxyphenyl)-phthalazine] | –
> 20000 nM | Cc1ccc(C)c(-c2n[nH]c(=O)c3ccccc23)c1 [Compound 7, 4-(2,5-Dimethylphenyl)-1(2H)-Phthalazinone] | –
– | CCOC(=O)c1cnn2c(-c3cccc(C(F)(F)F)c3)ccnc12 [Compound 3a] | IC50 [3]: 210 ± 43 nM

IC50 [1] | Structure (SMILES) | further results
– | COc1ccccc1-c1ccnc2c(C(N)=O)cnn12 [Compound 6j] | IC50 [3]: 2310 nM
7030 ± 360 nM | COc1ccc(-c2ccc(O)c(C)c2)c2ccccc12 [Compound 1, 1-Methoxy-4-(4-hydroxy-3-methylphenyl)-naphthalene] | –
> 20000 nM | O=c1c2ccccc2c(-c2ccccc2)nn1-c1ccccc1 [Compound 33, 2,4-Diphenyl-1(2H)-phthalazinone] | –
– | NC(=O)c1cnn2c(-c3ccccc3)ccnc12 [Compound 6e] | IC50 [2]: 760 nM
350 ± 120 nM | Cc1cc(-c2ncnc3ccccc23)ccc1O [Compound 38, 4-(3-Methyl-4-Hydroxyphenyl)quinazoline] | –
11400 ± 360 nM | Cc1cc(-c2nncc3ccccc23)cc(C)c1O [Compound 40, 1-(3,5-Dimethyl-4-Hydroxyphenyl)-phthalazine] | –
> 20000 nM | Cc1cc(-c2n[nH]c3ccccc23)ccc1O [Compound 48, 3-(4-Hydroxy-3-methylphenyl)-1H-indazole] | –
– | Cc1cc(-c2ccnc3ccccc23)cc(C)c1O [Compound 36, 4-(3,5-Dimethyl-4-Hydroxyphenyl)quinoline] | IC50 [5]: 25.5 ± 10.7 nM
– | NC(=O)c1cnn2c(-c3ccccc3C(F)(F)F)ccnc12 [Compound 6c] | IC50 [3]: 230 ± 140 nM
330 ± 40 nM | Cc1cc(-c2nn(C)c(=O)c3ccccc23)ccc1O [Compound 30, 4-(4-Hydroxy-3-methylphenyl)-2-methyl-1(2H)-phthalazinone] | –
> 20000 nM | Cn1nc(-c2ccccc2)c2ccccc2c1=O [Compound 6, 2-Methyl-4-phenyl-1(2H)-Phthalazinone] | –
480 ± 430 nM | Cc1cc(-c2ccc(O)c3ccccc23)ccc1O [Compound 2, 4-(4-Hydroxy-3-methylphenyl)-1-naphthol] | –
160 ± 20 nM | Cc1cc(-c2cncc3ccccc23)ccc1O [Compound 39, 4-Isoquinolin-4-yl-2-methylphenol] | –
– | CCc1cccc(-c2ccnc3c(C(N)=O)cnn23)c1 [Compound 6m] | IC50 [3]: 120 ± 23 nM
– | CCOC(=O)c1cnn2c(-c3cccc(C)c3)ccnc12 [Compound 3b] | IC50 [3]: 92 ± 15 nM
> 20000 nM | CC(C)c1cc(-c2n[nH]c(=O)c3ccccc23)cc(C(C)C)c1O [Compound 23, 4-(4-Hydroxy-3,5-diisopropylphenyl)-1(2H)-phthalazinone] | –
– | NC(=O)c1cnn2c(-c3ccc(C(F)(F)F)cc3)ccnc12 [Compound 6d] | IC50 [3]: 1220 nM
– | Cc1cc(-c2ccc(O)c(C)c2)c2ccccc2n1 [Compound 11c] | IC50 [4]: 86 ± 11 nM
– | NC(=O)c1cnn2c(-c3cc(C(F)(F)F)cc(C(F)(F)F)c3)ccnc12 [Compound 6i] | IC50 [3]: 250 ± 130 nM
– | CCN(CC)C(=O)c1cnn2c(-c3cccc(C(F)(F)F)c3)ccnc12 [Compound 6o] | inhibitory activity against TLR8 signaling: no significant activity
> 20000 nM | CCOc1ccc(-c2nn(CC)c(=O)c3ccccc23)cc1C [Compound 32, 4-(4-Ethoxyl-3-methylphenyl)-2-ethyl-1(2H)-phthalazinone] | –
170 ± 20 nM | Cc1cc(-c2nn(C)c(=O)c3ccccc23)cc(C)c1O [Compound 4, 4-(4-Hydroxy-3,5-dimethylphenyl)-2-methyl-1(2H)-Phthalazinone] | –

Structure (SMILES) | IC50 [1] | further results
Cc1cc(-c2cn(C(=O)OC(C)(C)C)c3ccccc23)ccc1O [Compound 46, N-tert-butoxycarbonyl-3-(4-Hydroxy-3-methylphenyl)-indole] | > 20000 nM | –
CC(=O)Oc1ccc(-c2n[nH]c(=O)c3ccccc23)cc1C [Compound 18, 4-(4-Acetoxy-3-methylphenyl)-1(2H)-phthalazinone] | 3770 ± 450 nM | –
Cc1cc(-c2c[nH]c3ccccc23)ccc1O [Compound 47, 3-(4-Hydroxy-3-methylphenyl)-indole] | 2800 ± 690 nM | –
Cc1cc(-c2n[nH]c(=O)c3ccccc23)ccc1O [Compound 21, 4-(4-Hydroxy-3-methylphenyl)-1(2H)-phthalazinone] | 1300 ± 320 nM | –
CC(=O)Oc1c(C)cc(-c2n[nH]c(=O)c3ccccc23)cc1C [Compound 17, 4-(4-Acetoxy-3,5-dimethylphenyl)-1(2H)-phthalazinone] | 4760 ± 420 nM | –

Source: patent US11466010B2, “Toll-like receptor 8 (TLR8) specific antagonists and methods of making and uses thereof” (The Regents of the University of Colorado, a body corporate, priority 2017, dated 2022)
